Measured values reported in US20110318302A1, “Cancer Treatment” (priority 2009, published 2011).

System: human renal cancer cell line Caki-1
Assay: Caki-1 tumour mouse model, single and combination therapy (tumour volume)
Format: in vivo, BALB/c nude mice
Conditions: single agent; s.c. Caki-1 tumours; F8-IL2 20 μg i.v. 3x every 3rd day; sorafenib or sunitinib 60 mg/kg p.o. 7 days; huIFNa2b/muIFNa1 10.000 IU/10.000 IU s.c. 3x; two treatment cycles (days 11-17, 37-43)
Description: For the combination therapy, the human renal cancer cell line Caki-1 (clear cell carcinoma from kidney; ATCC) was cultured in DMEM containing 10% fetal bovine serum and 2 mM L-glutamine (all Invitrogen).
Female BALE/c nude mice were obtained from Charles River Laboratories. All experiments were performed according to Swiss regulations and under a project license granted by the Veterinäramt des Kantons Zürich.
Sorafenib tosylate (Nexavar, Bayer Schering) and sunitinib malate (Sutent, Pfizer) were obtained in the commercially available forms of 200 mg tablets and 50 mg capsules, respectively. The total tablet weight of sorafenib is 350 mg and an index of 1.75 was used to keep the molarity in terms of active compound. Sorafenib tablets were pulverized with mortar and pestle and kept from light in a desiccator. For in vivo administration, pulverized sorafenib was dissolved in a solution of CremophorEL:Ethanol:H2O (12.5%:12.5%:75%). The content of a sunitinib malate capsule was 167 mg and a correction factor of 3.3 was used for molarity adjustment. […]
Mice were monitored daily and tumor volumes were measured three times per week with a digital caliper using the following formula: volume=length×width^2×0.5. […] Tumor volumes are expressed as mean±SE (standard error). […]

CNC(=O)c1cc(Oc2ccc(NC(=O)Nc3ccc(Cl)c(C(F)(F)F)c3)cc2)ccn1 [Sorafenib]
tumour burden (tumour volume) versus PBS control: little or no effect on tumour burden
